{"source": "patent US12435044B2", "about": "“Pyridazinone herbicides and pyridazinone intermediates used to prepare a herbicide” (FMC Corporation, priority 2018, dated 2025)", "type_in_all_cases": "in vivo", "key": {"[1]": {"test_system": "barnyardgrass (Echinochloa crus-galli)", "test": "Test A pre-/postemergence greenhouse test", "from_the_text": "(§1) Seeds of plant species selected from barnyardgrass (Echinochloa crus-galli), kochia (Kochia scoparia), ragweed (common ragweed, Ambrosia elatior), ryegrass, Italian (Lolium multiflorum), foxtail, giant (Setaria faberii), foxtail, green (Setaria viridis) and pigweed (Amaranthus retroflexus) were planted into a blend of loam soil and sand and treated preemergence with a directed soil spray using test chemicals formulated in a non-phytotoxic solvent mixture which included a surfactant.\n(§2) At the same time, plants selected from these weed species and also wheat (Triticum aestivum), corn (Zea mays), blackgrass (Alopecurus myosuroides) and galium (catchweed bedstraw, Galium aparine) were planted in pots containing the same blend of loam soil and sand and treated with postemergence applications of test chemicals formulated in the same manner. Plants ranged in height from 2 to 10 cm and were in the one- to two-leaf stage for the postemergence treatment. Treated plants and untreated controls were maintained in a greenhouse for approximately 10 d, after which time all treated plants were compared to untreated controls and visually evaluated for injury. Plant response ratings, summarized in Table A, are based on a 0 to 100 scale where 0 is no effect and 100 is complete control. A dash (-) response means no test result."}, "kochia (Kochia scoparia)": {"test_system": "kochia (Kochia scoparia)", "test": "Test A pre-/postemergence greenhouse test", "from_the_text": "as §1, §2"}, "[2]": {"test_system": "pigweed (Amaranthus retroflexus)", "test": "Test A pre-/postemergence greenhouse test", "from_the_text": "as §1, §2"}, "[3]": {"test_system": "ragweed (common ragweed, Ambrosia elatior)", "test": "Test A pre-/postemergence greenhouse test", "from_the_text": "as §1, §2"}, "[4]": {"test_system": "ryegrass, Italian (Lolium multiflorum)", "test": "Test A pre-/postemergence greenhouse test", "from_the_text": "as §1, §2"}, "[5]": {"test_system": "barnyardgrass (Echinochloa crus-galli)", "test": "Test B flooded paddy test", "conditions": "Flood, 250 g ai/ha", "method": "(§3) Plant species in the flooded paddy test selected from rice (Oryza sativa), sedge, umbrella (small-flower umbrella sedge, Cyperus difformis), duck salad (Heteranthera limosa) and barnyardgrass (Echinochloa crus-galli) were grown to the 2-leaf stage for testing. At time of treatment, test pots were flooded to 3 cm above the soil surface, treated by application of test compounds directly to the paddy water, and then maintained at that water depth for the duration of the test. Treated plants and controls were maintained in a greenhouse for 13 to 15 d, after which time all species were compared to controls and visually evaluated. Plant response ratings, summarized in Table B, are based on a scale of 0 to 100 where 0 is no effect and 100 is complete control. A dash (-) response means no test result."}, "[6]": {"test_system": "duck salad (Heteranthera limosa)", "test": "Test B flooded paddy test", "conditions": "Flood, 250 g ai/ha, Ducksalad", "method": "as §3"}, "rice (Oryza sativa)": {"test_system": "rice (Oryza sativa)", "test": "Test B flooded paddy test", "conditions": "Flood, 250 g ai/ha", "method": "as §3"}, "[7]": {"test_system": "sedge, umbrella (small-flower umbrella sedge, Cyperus difformis)", "test": "Test B flooded paddy test", "conditions": "Flood, 250 g ai/ha", "method": "as §3"}, "[8]": {"test_system": "barnyardgrass (Echinochloa crus-galli)", "test": "Test C flooded paddy test", "conditions": "Flood, scale 0 to 100", "from_the_text": "as §3, with “consisted of” for “selected from”, “(transplanted and water seeded, Oryza” for “(Oryza”, “ducksalad” for “duck salad”, “limosa), Bulrush, Japanese (Scirpus juncoides)” for “limosa)”, “crus-galli)” for “crus-galli) were”, “C” for “B,”"}, "[9]": {"test_system": "ducksalad (Heteranthera limosa)", "test": "Test C flooded paddy test", "conditions": "Flood, scale 0 to 100", "from_the_text": "as §3, with “consisted of” for “selected from”, “(transplanted and water seeded, Oryza” for “(Oryza”, “ducksalad” for “duck salad”, “limosa), Bulrush, Japanese (Scirpus juncoides)” for “limosa)”, “crus-galli)” for “crus-galli) were”, “C” for “B,”"}, "[10]": {"test_system": "rice (transplanted and water seeded, Oryza sativa)", "test": "Test C flooded paddy test", "conditions": "Flood, scale 0 to 100", "from_the_text": "as §3, with “consisted of” for “selected from”, “(transplanted and water seeded, Oryza” for “(Oryza”, “ducksalad” for “duck salad”, “limosa), Bulrush, Japanese (Scirpus juncoides)” for “limosa)”, “crus-galli)” for “crus-galli) were”, “C” for “B,”"}, "[11]": {"test_system": "sedge, umbrella (small-flower umbrella sedge, Cyperus difformis)", "test": "Test C flooded paddy test", "conditions": "Flood, scale 0 to 100", "from_the_text": "as §3, with “consisted of” for “selected from”, “(transplanted and water seeded, Oryza” for “(Oryza”, “ducksalad” for “duck salad”, “limosa), Bulrush, Japanese (Scirpus juncoides)” for “limosa)”, “crus-galli)” for “crus-galli) were”, “C” for “B,”"}}}
{"smiles": "Cc1cc(Cl)c2ccccc2c1-c1c(O)c(Cl)nn(C)c1=O", "note": "[Cpd. No. 65]", "values": [{"measurement": "Plant response rating (0 to 100 scale)", "setting": "[1]; Postemergence, 31 g ai/ha", "result": 100}, {"measurement": "Plant response rating (0 to 100 scale)", "setting": "[1]; Postemergence, 125 g ai/ha", "result": 100}, {"measurement": "Plant response rating (0 to 100 scale)", "setting": "[1]; Preemergence, 31 g ai/ha", "result": 100}, {"measurement": "Plant response rating (0 to 100 scale)", "setting": "[1]; Preemergence, 125 g ai/ha", "result": 100}, {"measurement": "Plant response rating (0 to 100 scale)", "setting": "kochia (Kochia scoparia); Postemergence, 31 g ai/ha", "result": 80}, {"measurement": "Plant response rating (0 to 100 scale)", "setting": "kochia (Kochia scoparia); Postemergence, 125 g ai/ha", "result": 100}, {"measurement": "Plant response rating (0 to 100 scale)", "setting": "kochia (Kochia scoparia); Preemergence, 31 g ai/ha", "result": 0}, {"measurement": "Plant response rating (0 to 100 scale)", "setting": "kochia (Kochia scoparia); Preemergence, 125 g ai/ha", "result": 80}, {"measurement": "Plant response rating (0 to 100 scale)", "setting": "[2]; Postemergence, 31 g ai/ha", "result": 100}, {"measurement": "Plant response rating (0 to 100 scale)", "setting": "[2]; Postemergence, 125 g ai/ha", "result": 100}, {"measurement": "Plant response rating (0 to 100 scale)", "setting": "[2]; Preemergence, 31 g ai/ha", "result": 100}, {"measurement": "Plant response rating (0 to 100 scale)", "setting": "[2]; Preemergence, 125 g ai/ha", "result": 100}, {"measurement": "Plant response rating (0 to 100 scale)", "setting": "[3]; Postemergence, 31 g ai/ha", "result": 100}, {"measurement": "Plant response rating (0 to 100 scale)", "setting": "[3]; Postemergence, 125 g ai/ha", "result": 100}, {"measurement": "Plant response rating (0 to 100 scale)", "setting": "[3]; Preemergence, 31 g ai/ha", "result": 100}, {"measurement": "Plant response rating (0 to 100 scale)", "setting": "[3]; Preemergence, 125 g ai/ha", "result": 100}, {"measurement": "Plant response rating (0 to 100 scale)", "setting": "[4]; Postemergence, 31 g ai/ha", "result": 100}, {"measurement": "Plant response rating (0 to 100 scale)", "setting": "[4]; Postemergence, 125 g ai/ha", "result": 100}, {"measurement": "Plant response rating (0 to 100 scale)", "setting": "[4]; Preemergence, 31 g ai/ha", "result": 100}, {"measurement": "Plant response rating (0 to 100 scale)", "setting": "[4]; Preemergence, 125 g ai/ha", "result": 100}, {"measurement": "Plant response rating (0 to 100 scale)", "setting": "[5]", "result": 40}, {"measurement": "Plant response rating (0 to 100 scale)", "setting": "[6]", "result": 80}, {"measurement": "Plant response rating (0 to 100 scale)", "setting": "rice (Oryza sativa)", "result": 20}, {"measurement": "Plant response rating (0 to 100 scale)", "setting": "[7]", "result": 90}, {"measurement": "Plant response rating, Barnyardgrass", "setting": "[8]; 31 g ai/ha", "result": 0}, {"measurement": "Plant response rating, Barnyardgrass", "setting": "[8]; 62 g ai/ha", "result": 10}, {"measurement": "Plant response rating, Barnyardgrass", "setting": "[8]; 125 g ai/ha", "result": 30}, {"measurement": "Plant response rating, Barnyardgrass", "setting": "[8]; 250 g ai/ha", "result": 100}, {"measurement": "Plant response rating, Ducksalad", "setting": "[9]; 31 g ai/ha", "result": 95}, {"measurement": "Plant response rating, Ducksalad", "setting": "[9]; 62 g ai/ha", "result": 100}, {"measurement": "Plant response rating, Ducksalad", "setting": "[9]; 125 g ai/ha", "result": 100}, {"measurement": "Plant response rating, Ducksalad", "setting": "[9]; 250 g ai/ha", "result": 100}, {"measurement": "Plant response rating, Rice, Transplanted", "setting": "[10]; 31 g ai/ha", "result": 0}, {"measurement": "Plant response rating, Rice, Transplanted", "setting": "[10]; 62 g ai/ha", "result": 0}, {"measurement": "Plant response rating, Rice, Transplanted", "setting": "[10]; 125 g ai/ha", "result": 20}, {"measurement": "Plant response rating, Rice, Water Seeded", "setting": "[10]; 125 g ai/ha", "result": 10}, {"measurement": "Plant response rating, Rice, Transplanted", "setting": "[10]; 250 g ai/ha", "result": 70}, {"measurement": "Plant response rating, Sedge, Umbrella", "setting": "[11]; 31 g ai/ha", "result": 95}, {"measurement": "Plant response rating, Sedge, Umbrella", "setting": "[11]; 62 g ai/ha", "result": 100}, {"measurement": "Plant response rating, Sedge, Umbrella", "setting": "[11]; 125 g ai/ha", "result": 100}, {"measurement": "Plant response rating, Sedge, Umbrella", "setting": "[11]; 250 g ai/ha", "result": 100}]}
